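Tested at 5 concentrations; 48 h exposure; 96-well plates; endpoints linearly interpolated, else capped at highest concentration. GI50 is the concentration that inhibits growth by half.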 The source made the active and inactive calls. Rule as the data show it: active = GI50 up to about 1.1 µM and inactive = higher.
What was measured:
Assay in all cases: growth of human tumour cells (NCI), 48 h
[1] = system: RPMI-8226
[2] = system: SNB-75
[3] = system: OVCAR-5
[4] = system: COLO 205
[5] = system: Malme-3M
[6] = system: CAKI-1
[7] = system: SNB-78
[8] = system: LOX IMVI
[9] = system: U-251
[10] = system: SK-MEL-5
[11] = system: HCT-15
[12] = system: SN12C
[13] = system: TK-10
[14] = system: HCT-116
[15] = system: SR
[16] = system: HL-60
[17] = system: DLD-1
[18] = system: HOP-62
[19] = system: SK-MEL-28
[20] = system: OVCAR-4
[21] = system: MOLT-4
[22] = system: UO-31
[23] = system: DMS-114
[24] = system: SW-620
[25] = system: KM12
[26] = system: HOP-18
[27] = system: OVCAR-3
[28] = system: EKVX
[29] = system: A549
[30] = system: SF-295
[31] = system: M14
[32] = system: LXFL 529
[33] = system: SK-MEL-2
[34] = system: IGROV-1
[35] = system: UACC-257
[36] = system: XF498
[37] = system: OVCAR-8
[38] = system: HT-29
[39] = system: UACC-62
[40] = system: KM-20L2
[41] = system: NCI-H460
[42] = system: RXF 393
[43] = system: K562
[44] = system: SF-539
[45] = system: SNB-19
[46] = system: NCI-H23
[47] = system: NCI-H522
[48] = system: 786-0
[49] = system: CCRF-CEM
[50] = system: M19-MEL
[51] = system: SK-OV-3
[52] = system: NCI-H226
[53] = system: SF-268
[54] = system: A498
[55] = system: ACHN
[56] = system: DMS-273
[57] = system: HCC 2998
[58] = system: HOP-92

Measured: GI50

OCCNCCOc1ccc(/C(=C(/Cl)c2ccccc2)c2ccccc2)cc1
active: [5] 0.246 µM | [13] 0.408 µM | [16] 0.729 µM | [25] 0.544 µM | [29] 0.34 µM | [38] 1.11 µM | [42] 0.637 µM
5.58 µM: [11]
inactive: [1] 4.42 µM | [2] 2.37 µM | [3] 15.1 µM | [4] 3.56 µM | [6] 12.4 µM | [7] 8.51 µM | [8] 3.49 µM | [9] 8.43 µM | [10] 6.25 µM | [12] 5.3 µM | [14] 4.99 µM | [15] 3.34 µM | [17] 12.1 µM | [18] 16.7 µM | [19] 1.14 µM | [20] 16.5 µM | [21] 1.69 µM | [22] 9.48 µM | [23] 15.2 µM | [24] 4.44 µM | [26] 19.3 µM | [27] 12.1 µM | [28] 14.7 µM | [30] 15.2 µM | [31] 1.87 µM | [32] 6.92 µM | [33] 13.2 µM | [34] 10.5 µM | [35] 2.21 µM | [36] 2.9 µM | [37] 13.5 µM | [39] 12.5 µM | [40] 2.47 µM | [41] 3.4 µM | [43] 2.85 µM | [44] 13.6 µM | [45] 13.9 µM | [46] 14.7 µM | [47] 14 µM | [48] 9.68 µM | [49] 1.92 µM | [50] 10.9 µM | [51] 3 µM | [52] 21.6 µM

CCOC(=O)CN(c1ccccc1)c1nc(=[N+](C)C)ss1
16.4 µM: [11]
inactive: [1] 1.19 µM | [53] 45.2 µM | [2] 29 µM | [4] 2.06 µM | [5] 21.2 µM | [6] 50.9 µM | [7] 32.4 µM | [9] 17.9 µM | [54] 42.5 µM | [12] 17.9 µM | [13] 47.4 µM | [14] 5.65 µM | [16] 13.1 µM | [17] 6.93 µM | [18] 33 µM | [19] 26.4 µM | [20] 17.7 µM | [21] 1.77 µM | [22] 23.7 µM | [24] 53.1 µM | [26] 53 µM | [55] 35.7 µM | [29] 30.4 µM | [31] 32.4 µM | [33] 19.8 µM | [34] > 10 µM | [35] 24.3 µM | [57] 41.1 µM | [37] 20 µM | [39] 26.9 µM | [40] 54.7 µM | [42] 10.5 µM | [43] 6.78 µM | [44] 40.1 µM | [45] 61.9 µM | [48] 37.9 µM | [51] 85.1 µM | [52] 23.8 µM
active: [15] 0.678 µM | [23] 0.309 µM | [27] 0.284 µM | [56] 0.318 µM | [47] 0.24 µM | [49] 0.979 µM | [50] 0.303 µM

Cc1cc2c(cn1)C(=O)OCC2
inactive: [1] > 100 µM | [53] > 100 µM | [2] > 100 µM | [3] > 100 µM | [5] > 100 µM | [7] > 100 µM | [8] > 100 µM | [9] > 100 µM | [54] > 100 µM | [12] > 100 µM | [13] > 100 µM | [14] > 100 µM | [15] > 100 µM | [16] > 100 µM | [17] > 100 µM | [18] > 100 µM | [19] > 100 µM | [20] > 100 µM | [21] > 100 µM | [22] > 100 µM | [23] > 100 µM | [24] > 100 µM | [25] > 100 µM | [26] > 100 µM | [27] > 100 µM | [55] > 100 µM | [28] > 100 µM | [29] > 100 µM | [30] > 100 µM | [31] > 100 µM | [32] > 100 µM | [34] > 100 µM | [35] > 100 µM | [57] > 100 µM | [36] > 100 µM | [37] > 100 µM | [38] > 100 µM | [39] > 100 µM | [40] > 100 µM | [41] > 100 µM | [42] > 100 µM | [43] > 100 µM | [44] > 100 µM | [45] > 100 µM | [46] > 100 µM | [48] > 100 µM | [49] > 100 µM | [50] > 100 µM | [51] > 100 µM | [52] > 100 µM

COc1cccc(/C=N/[N-]C(=S)Nc2ccccc2)c1[O-].O.[Zn+2]
31.6 µM: [11]
inactive: [1] 66.8 µM | [53] 47 µM | [2] 43.7 µM | [3] > 100 µM | [5] 86.5 µM | [6] 87.7 µM | [7] 40.1 µM | [8] 53.7 µM | [9] 60.4 µM | [10] 61.1 µM | [12] > 100 µM | [13] > 100 µM | [16] 28.8 µM | [17] 29 µM | [18] 17 µM | [19] > 100 µM | [20] 23.5 µM | [21] 28.6 µM | [22] 33.6 µM | [23] 15.4 µM | [24] 56.4 µM | [25] 40.6 µM | [26] > 100 µM | [27] 40.5 µM | [55] 39.8 µM | [28] 49.1 µM | [29] 34.1 µM | [30] 76.7 µM | [31] 44.5 µM | [32] 68.5 µM | [33] 63.7 µM | [34] 52 µM | [35] 55.5 µM | [57] > 100 µM | [36] 23.2 µM | [37] 35.5 µM | [38] 72.4 µM | [39] 19.7 µM | [40] 40.3 µM | [41] 50.9 µM | [42] 35.9 µM | [58] 73.5 µM | [43] 42 µM | [44] 66.4 µM | [45] 66.1 µM | [46] 37.7 µM | [47] 19.7 µM | [48] > 100 µM | [49] 29.3 µM | [50] 60 µM | [51] 44.4 µM | [52] 37.8 µM

— ChEMBL document CHEMBL1201862, “PubChem BioAssay data set” (2004)
